# Reference: ChEMBL document CHEMBL5226284, “Small Molecule Inhibitors Targeting Biosynthesis of Ceramide, the Central Hub of the Sphingolipid Network” (J Med Chem, 2021)
# Columns and labels:
# Sphingomyelinase C = target: T1, Sphingomyelinase C (Bacillus cereus, UniProt P11889); assay: Inhibition of Bacillus cereus SMaseC
# T1 sequence (P11889 whole entry): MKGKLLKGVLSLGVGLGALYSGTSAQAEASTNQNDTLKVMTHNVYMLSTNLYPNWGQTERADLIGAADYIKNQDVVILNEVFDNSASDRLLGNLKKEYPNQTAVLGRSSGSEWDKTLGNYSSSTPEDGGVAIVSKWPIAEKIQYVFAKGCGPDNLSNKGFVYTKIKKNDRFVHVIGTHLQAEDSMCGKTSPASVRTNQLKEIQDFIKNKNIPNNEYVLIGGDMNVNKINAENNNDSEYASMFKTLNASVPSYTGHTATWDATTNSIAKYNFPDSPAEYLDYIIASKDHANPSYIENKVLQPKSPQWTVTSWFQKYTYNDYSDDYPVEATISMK
# [1] = Inhibition of CerS human HCT-116 cells microsomal fraction assessed as reduction in C24 dihydroceramide synthesis by LC-MS/MS analysis; format: microsomes, Microsome
# [2] = Inhibition of rat brain aSMase using HMU-PC as substrate incubated for 3 hrs by fluorescence based analysis; format: tissue-based
# [3] = target: T2, Sphingomyelin phosphodiesterase 2 (Mus musculus, UniProt O70572); assay: Inhibition of mouse nSMase
# T2 sequence (O70572 whole entry): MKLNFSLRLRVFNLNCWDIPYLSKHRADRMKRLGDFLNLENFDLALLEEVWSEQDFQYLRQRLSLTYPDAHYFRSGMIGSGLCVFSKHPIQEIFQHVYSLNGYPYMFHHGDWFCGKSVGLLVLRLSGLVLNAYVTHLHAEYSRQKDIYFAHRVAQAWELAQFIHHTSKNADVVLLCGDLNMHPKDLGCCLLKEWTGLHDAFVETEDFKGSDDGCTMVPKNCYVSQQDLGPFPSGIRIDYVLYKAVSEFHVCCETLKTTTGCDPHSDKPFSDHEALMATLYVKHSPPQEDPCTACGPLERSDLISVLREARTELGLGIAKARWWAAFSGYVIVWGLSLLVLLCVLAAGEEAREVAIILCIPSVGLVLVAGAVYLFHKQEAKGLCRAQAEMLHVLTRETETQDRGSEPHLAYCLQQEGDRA
# [4] = Inhibition of CerS human HCT-116 cells microsomal fraction assessed as reduction in C16 dihydroceramide synthesis by LC-MS/MS analysis; format: microsomes, Microsome
# [5] = Inhibition of CerS human HCT-116 cells microsomal fraction assessed as reduction in C18 dihydroceramide synthesis by LC-MS/MS analysis; format: microsomes, Microsome
# [6] = target: T3, Ceramide synthase 1 (Homo sapiens) (UniProt P27544); assay: Inhibition of CerS1 (unknown origin) at 10 uM relative to control
# T3 sequence (whole entry): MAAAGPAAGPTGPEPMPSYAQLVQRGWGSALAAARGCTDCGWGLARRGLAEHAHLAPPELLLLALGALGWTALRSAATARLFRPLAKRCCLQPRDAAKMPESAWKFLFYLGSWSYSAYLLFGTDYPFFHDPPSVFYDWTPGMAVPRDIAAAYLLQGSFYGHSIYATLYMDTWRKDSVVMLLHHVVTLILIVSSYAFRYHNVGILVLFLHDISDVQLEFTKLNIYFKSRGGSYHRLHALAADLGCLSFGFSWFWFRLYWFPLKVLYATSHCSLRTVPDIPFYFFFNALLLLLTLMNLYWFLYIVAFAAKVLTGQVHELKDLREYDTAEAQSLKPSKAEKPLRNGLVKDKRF
# HEK293 = assay: Competitive inhibition of CerS in HEK293 cells at 10 uM relative to control; format: cell-based; conditions: Homo sapiens
# [7] = target: Ceramide synthase 5 (Homo sapiens) (UniProt Q8N5B7); assay: Inhibition of CerS5 (unknown origin) at 10 uM relative to control
# [8] = target: Ceramide synthase 6 (Homo sapiens) (UniProt Q6ZMG9); assay: Inhibition of CerS6 (unknown origin) at 10 uM relative to control
# [9] = Inhibition of CerS human HCT-116 cells microsomal fraction assessed as reduction in C24:1 dihydroceramide synthesis by LC-MS/MS analysis; format: microsomes, Microsome
# [10] = target: T4, Sphingomyelin phosphodiesterase 2 (Rattus norvegicus) (UniProt Q9ET64); assay: Inhibition of rat brain microsomes nSMase at 100 uM relative to control; conditions: Microsome
# T4 sequence (whole entry): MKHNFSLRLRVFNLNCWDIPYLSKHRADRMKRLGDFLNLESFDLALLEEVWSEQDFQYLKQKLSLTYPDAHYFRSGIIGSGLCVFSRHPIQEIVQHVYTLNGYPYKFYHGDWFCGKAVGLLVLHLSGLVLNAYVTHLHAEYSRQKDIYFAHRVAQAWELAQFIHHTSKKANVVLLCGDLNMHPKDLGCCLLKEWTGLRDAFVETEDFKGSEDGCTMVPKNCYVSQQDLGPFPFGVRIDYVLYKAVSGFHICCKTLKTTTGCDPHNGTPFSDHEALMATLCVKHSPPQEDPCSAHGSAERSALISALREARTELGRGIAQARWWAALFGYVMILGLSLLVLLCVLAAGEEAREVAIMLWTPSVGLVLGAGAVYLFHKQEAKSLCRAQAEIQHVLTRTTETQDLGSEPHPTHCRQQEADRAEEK
# [11] = Inhibition of rat brain aSMase; format: tissue-based
# [12] = target: T4, Sphingomyelin phosphodiesterase 2 (Rattus norvegicus); assay: Inhibition of rat brain microsomes nSMase at 200 uM measured after 90 mins relative to control; conditions: Microsome
# [13] = Inhibition of bovine brain microsomes nSMase assessed as inhibition constant; set-up: species or system Bos taurus, Microsome
# Bos taurus = species: Bos taurus; assay: Inhibition of bovine brain microsomes nSMase measured after 60 mins relative to control; conditions: Microsome
# [14] = Inhibition of rat brain aSMase using HMU-PC as substrate incubated for 3 hrs by fluorescence plate reader assay; format: tissue-based
# [15] = target: T5, Sphingomyelin phosphodiesterase 2 (Rattus norvegicus, UniProt Q9ET64); assay: Inhibition of rat brain microsomes nSMase; set-up: species or system Microsome
# T5 sequence (Q9ET64 whole entry): T4 sequence (whole entry)
# [16] = target: T6, Sphingolipid delta(4)-desaturase DES1 (Homo sapiens, UniProt O15121); assay: Inhibition of DES1 in human HGC-27 cell lysates; format: subcellular
# T6 sequence (O15121 whole entry): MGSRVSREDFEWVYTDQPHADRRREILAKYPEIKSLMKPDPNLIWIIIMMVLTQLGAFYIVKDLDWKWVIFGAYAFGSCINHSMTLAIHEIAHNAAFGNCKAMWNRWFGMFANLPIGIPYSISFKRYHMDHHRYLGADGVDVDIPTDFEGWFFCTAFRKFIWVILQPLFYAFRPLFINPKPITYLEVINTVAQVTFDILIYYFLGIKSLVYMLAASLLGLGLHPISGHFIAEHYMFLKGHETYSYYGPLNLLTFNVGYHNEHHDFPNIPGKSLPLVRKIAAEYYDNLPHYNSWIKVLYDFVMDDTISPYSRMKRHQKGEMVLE
# Ceramide synthase 5 (Homo sapiens), sequence (Q8N5B7 whole entry): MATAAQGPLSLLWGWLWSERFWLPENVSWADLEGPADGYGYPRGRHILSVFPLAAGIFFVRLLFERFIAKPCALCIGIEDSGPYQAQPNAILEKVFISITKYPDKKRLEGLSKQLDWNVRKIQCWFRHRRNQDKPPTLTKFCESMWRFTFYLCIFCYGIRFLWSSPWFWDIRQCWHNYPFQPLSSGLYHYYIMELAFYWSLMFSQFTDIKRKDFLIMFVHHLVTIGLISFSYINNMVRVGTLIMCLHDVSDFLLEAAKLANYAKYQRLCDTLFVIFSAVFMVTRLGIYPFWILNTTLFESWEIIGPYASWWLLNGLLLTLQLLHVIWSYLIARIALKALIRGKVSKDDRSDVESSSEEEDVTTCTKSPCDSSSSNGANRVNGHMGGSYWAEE
# Ceramide synthase 6 (Homo sapiens), sequence (Q6ZMG9 whole entry): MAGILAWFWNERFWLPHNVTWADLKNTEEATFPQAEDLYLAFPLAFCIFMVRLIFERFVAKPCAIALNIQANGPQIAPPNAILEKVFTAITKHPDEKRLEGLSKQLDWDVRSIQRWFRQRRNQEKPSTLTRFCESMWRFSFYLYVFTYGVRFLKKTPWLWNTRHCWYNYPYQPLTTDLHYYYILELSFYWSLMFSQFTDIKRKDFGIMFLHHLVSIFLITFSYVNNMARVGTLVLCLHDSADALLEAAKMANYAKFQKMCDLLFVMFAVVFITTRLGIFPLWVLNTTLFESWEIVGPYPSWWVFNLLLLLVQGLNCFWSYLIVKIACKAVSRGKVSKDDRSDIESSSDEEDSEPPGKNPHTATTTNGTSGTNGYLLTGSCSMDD
structure (smiles),measurement,setting,value
CCCCCCC[C@@H](O)[C@H](CC(F)(F)P(=O)([O-])OCC[N+](C)(C)C)NC(=O)CCCCC,IC50,Sphingomyelinase C,57 µM
CCCCCCCCCCCCCCCCC(=O)NC(CO)(CO)CCc1ccc(OCCCCCCC)cc1,IC50,[1],63.6 µM
CCOS(=O)(=O)O[C@@H]1[C@H](O)[C@H](OP(=O)(O)O)[C@@H](O)[C@H](OP(=O)(O)O)[C@H]1O,IC50,[2],> 100 µM
COS(=O)(=O)O[C@@H]1[C@H](O)[C@H](OP(=O)(O)O)[C@@H](O)[C@H](OP(=O)(O)O)[C@H]1O,IC50,[2],> 100 µM
CCCCCCC[C@@H](O)[C@H](CCP(=O)([O-])OCC[N+](C)(C)C)NC(=O)CCCCC,IC50,Sphingomyelinase C,120 µM
S=c1[nH]nc(-c2cccs2)n1CC1CCCCC1,IC50,[3],2.5 µM
CCCCCCC[C@@H](O)[C@H](CCCP(=O)([O-])OCC[N+](C)(C)C)NC(=O)CCCCC,IC50,Sphingomyelinase C,78 µM
CCCCCCCCc1ccc(CCC(CO)(CO)NCC)cc1,IC50,[4],25.7 µM
same,IC50,[1],60.6 µM
same,IC50,[5],50.7 µM
CCCCOc1ccc(CC[C@](C)(N)CO)cc1,inhibition,[6],16%
CCCCCCCOc1ccc(CC[C@](C)(N)CO)cc1,inhibition,HEK293,50%
same,inhibition,[6],> 90%
same,inhibition,[7],50%
same,inhibition,[8],50%
CCCCCCCOc1ccc(CCC(CO)(CO)NC(=O)CCCc2ccccc2)cc1,IC50,[4],50.4 µM
same,IC50,[1],81.3 µM
same,IC50,[5],26.9 µM
same,IC50,[9],61.3 µM
CCCCCCCCOS(=O)(=O)O[C@@H]1[C@H](O)[C@H](OP(=O)(O)O)[C@@H](O)[C@H](OP(=O)(O)O)[C@H]1O,IC50,[2],4 µM
COc1c(O)c(C)c(C/C=C(\C)CC/C=C(\C)CC/C=C(\C)CC/C=C(\C)CC/C=C(\C)CCC=C(C)C)c(O)c1OC,inhibition,[10],> 90%
Cc1csc(-c2c(C(F)(F)F)oc3cc(O)c(C)cc3c2=O)n1,IC50,[11],9.5 µM
CCCCCCCCCC(=O)N[C@H](CO)C(=O)NC1=CC2(CO2)C(=O)C=C1 (stereo partly drawn),inhibition,[12],80%
COc1ccc2oc(-c3cc(Br)cc4c3OCOC4)c(N)c(=O)c2c1,IC50,[11],3.1 µM
CCCCCCCCCCCCCCNC(=S)N[C@H](CO)[C@H](O)c1ccc([N+](=O)[O-])cc1,Ki,[13],2.5 µM
same,inhibition,Bos taurus,90%
CCCCCCCCCC(N)(P(=O)(O)O)P(=O)(O)O,IC50,[14],0.02 µM
CCCCCCCCCC(=O)N[C@H](C)C(=O)NC1=CC2(CO2)C(=O)C=C1 (stereo partly drawn),inhibition,[12],33%
N=C(N)N/N=C/c1cc2ccccc2[nH]1,IC50,[15],5 µM
CCCCCCCCCC(=O)N[C@H](Cc1ccccc1)C(=O)NC1=CC2(CO2)C(=O)C=C1 (stereo partly drawn),inhibition,[12],23%
CCCCCCCCCCC/C=C/CC[C@@H](O)[C@H](CO)NC(=O)CCCCCCC,IC50,[16],0.155 µM
CCCCCCCCCC(O)(P(=O)(O)O)P(=O)(O)O,IC50,[14],0.08 µM
CC(C)(O)C(O)Cc1cc(O)ccc1O (stereo not drawn),IC50,[15],34 µM
